Experimental data taken from the supplement of paper PMC11208160.

Assay: recombinant barcode read abundance after kanamycin selection (control-corrected) (log10(CPM+1)); higher = more efficient recombination; sequences stand for … in AGTGCAGAGAAAATCGGCCAGTTTTCTCTGCCTGCAGTCCGCATGCCGT…AGATTTATGCAGCGGACTGCCTTTCTCCCAAAGTGATAAACCGGACAGTATCATGGACCGGTTTTCCCGGTAATCCGTATTTGCAAGGTTGGTTTCACT; site = the 11-nt target
Procedure, shortened: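 Duplicate cultures were plated either on chloramphenicol/ampicillin LB agar, serving as control, or on chloramphenicol/ampicillin/kanamycin with 0.1 mM IPTG. These came from a pooled E. coli library co-electroporated with a donor plasmid, each member pairing a target with an IS621 bridge RNA target-binding loop. Recombination efficiency equals averaged, control-corrected counts per million of recombinant-junction barcodes. It is listed as log10(CPM+1).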
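Also: IS621 recombinase and bridge RNA in Escherichia coli cells.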

Sequence	recombinant barcode read abundance (log10)
ATAAATCCTTGGGTTCTAACCTGTTGCCT (site CTAAATCCTAG)	0.126
ATAAATCCTTGGGTTCTAACCTGTTGCCT (site GTAAATCCTAG)	0.0609
ATAAATCCTTGGGTTCTAACCTGTTGCCT (site TTAAATCCTAG)	0.0804
ATAACTACTTGGGTTCTAACCTGTTGCCA (site ATAACTACTTG)	0.462
ATAACTACTTGGGTTCTAACCTGTTGCCA (site ATGTCTACTTG)	0.299
ATACAATCTTGGGTTCTAACCTGTTGCCT (site ATACAATCTAG)	1.13
ATACAATCTTGGGTTCTAACCTGTTGCCT (site CTACAATCTAG)	0.127
ATACAATCTTGGGTTCTAACCTGTTGCCT (site GTACAATCTAG)	0.0425
ATACAATCTTGGGTTCTAACCTGTTGCCT (site TTACAATCTAG)	0.202
ATACCATCTTGGGTTCTAACCTGTTGCCT (site ATACCATCTAG)	0.031
ATACCATCTTGGGTTCTAACCTGTTGCCT (site ATCCCATCTAG)	0.173
ATACCATCTTGGGTTCTAACCTGTTGCCT (site ATGCCATCTAG)	0.855
ATACCATCTTGGGTTCTAACCTGTTGCCT (site ATTCCATCTAG)	0.34
ATACGGACTTGGGTTCTAACCTGTTGCAG (site ATACGGACTCT)	2.77
ATACGGACTTGGGTTCTAACCTGTTGCAG (site ATATGTACTCT)	0.198
ATACGTTCTTGGGTTCTAACCTGTTGCAT (site ATACGTTCTAT)	1.12
ATACGTTCTTGGGTTCTAACCTGTTGCAT (site CAGGTCCCTCG)	0.354
ATACTAACTTGGGTTCTAACCTGTTGCCT (site AAACTAACTAG)	0.0718
ATACTAACTTGGGTTCTAACCTGTTGCCT (site ACACTAACTAG)	0.477
ATACTAACTTGGGTTCTAACCTGTTGCCT (site AGACTAACTAG)	0.0472
ATACTAACTTGGGTTCTAACCTGTTGCCT (site ATACTAACTAG)	1.7
ATAGAGTCTTGGGTTCTAACCTGTTGCTT (site AGAGAGTCTAA)	0.352
ATAGAGTCTTGGGTTCTAACCTGTTGCTT (site ATAGAGTCTAA)	2.52
ATAGCAACTTGGGTTCTAACCTGTTGCCT (site ATAGCAACTAG)	0.64
ATAGCAACTTGGGTTCTAACCTGTTGCCT (site ATAGCCACTAG)	0.11
ATAGCAACTTGGGTTCTAACCTGTTGCCT (site ATAGCGACTAG)	0.0185

Sequence	recombinant barcode read abundance (log10)
ATAGCAACTTGGGTTCTAACCTGTTGCCT (site ATAGCTACTAG)	0.0705
ATAGCTACTTGGGTTCTAACCTGTTGCCT (site ATAGCAACTAG)	0.142
ATAGCTACTTGGGTTCTAACCTGTTGCCT (site ATAGCCACTAG)	0.248
ATAGCTACTTGGGTTCTAACCTGTTGCCT (site ATAGCGACTAG)	0.0534
ATAGCTACTTGGGTTCTAACCTGTTGCCT (site ATAGCTACTAG)	1.2
ATAGGACCTTGGGTTCTAACCTGTTGCCG (site ATAGGACCTCG)	2.36
ATAGGACCTTGGGTTCTAACCTGTTGCCG (site ATAGGACCTTG)	0.143
ATAGGTTCTTGGGTTCTAACCTGTTGCCT (site AAAGGTTCTAG)	0.0456
ATAGGTTCTTGGGTTCTAACCTGTTGCCT (site ACAGGTTCTAG)	0.0769
ATAGGTTCTTGGGTTCTAACCTGTTGCCT (site AGAGGTTCTAG)	0.0854
ATAGGTTCTTGGGTTCTAACCTGTTGCCT (site ATAGGTTCTAG)	1.49
ATATGGACTTGGGTTCTAACCTGTTGCTA (site ATAAGGACTTA)	0.65
ATATGGACTTGGGTTCTAACCTGTTGCTA (site ATACGGACTTA)	1.34
ATATGGACTTGGGTTCTAACCTGTTGCTA (site ATAGGGACTTA)	0.159
ATATGGACTTGGGTTCTAACCTGTTGCTA (site ATATGGACTTA)	1.62
ATATGGGCTTGGGTTCTAACCTGTTGCCG (site ATATGAGCTCG)	0.369
ATATGGGCTTGGGTTCTAACCTGTTGCCG (site ATATGCGCTCG)	0.0627
ATATGGGCTTGGGTTCTAACCTGTTGCCG (site ATATGGGCTCG)	1.52
ATATGGGCTTGGGTTCTAACCTGTTGCCG (site ATATGTGCTCG)	0.1
ATATTGCCTTGGGTTCTAACCTGTTGCCT (site ATATTGCCTAG)	1.67
ATATTGCCTTGGGTTCTAACCTGTTGCCT (site ATATTGTCTTG)	0.0732
ATATTTCCTTGGGTTCTAACCTGTTGCCT (site AAATTTCCTAG)	0.0146
ATATTTCCTTGGGTTCTAACCTGTTGCCT (site ACATTTCCTAG)	0.0246
ATATTTCCTTGGGTTCTAACCTGTTGCCT (site AGATTTCCTAG)	0.163
ATATTTCCTTGGGTTCTAACCTGTTGCCT (site ATATTTCCTAG)	0.785
ATCCAGCCTTGGGTTCTAACCTGTTGCCT (site ATCCAACCTAG)	1.16

Sequence	recombinant barcode read abundance (log10)
ATCCAGCCTTGGGTTCTAACCTGTTGCCT (site ATCCACCCTAG)	0.0824
ATCCAGCCTTGGGTTCTAACCTGTTGCCT (site ATCCAGCCTAG)	1.7
ATCCAGCCTTGGGTTCTAACCTGTTGCCT (site ATCCATCCTAG)	0.0724
ATCCCACCTTGGGTTCTAACCTGTTGCGG (site ATACTACCTCC)	0.0321
ATCCCACCTTGGGTTCTAACCTGTTGCGG (site ATCCCACCTCC)	1.89
ATCCTAGCTTGGGTTCTAACCTGTTGCCG (site ATCCTAGCTCG)	1.58
ATCCTAGCTTGGGTTCTAACCTGTTGCCG (site TTCCTAGCTTG)	0.299
ATCGCTCCTTGGGTTCTAACCTGTTGCCT (site AACGCTCCTAG)	0.128
ATCGCTCCTTGGGTTCTAACCTGTTGCCT (site ACCGCTCCTAG)	0.115
ATCGCTCCTTGGGTTCTAACCTGTTGCCT (site AGCGCTCCTAG)	0.122
ATCGCTCCTTGGGTTCTAACCTGTTGCCT (site ATCGCTCCTAG)	2.12
ATCGGATCTTGGGTTCTAACCTGTTGCCT (site ATCGGAACTAG)	0.195
ATCGGATCTTGGGTTCTAACCTGTTGCCT (site ATCGGACCTAG)	0.0656
ATCGGATCTTGGGTTCTAACCTGTTGCCT (site ATCGGAGCTAG)	0.232
ATCGGATCTTGGGTTCTAACCTGTTGCCT (site ATCGGATCTAG)	0.678
ATCGGCCCTTGGGTTCTAACCTGTTGCTG (site ATCGGCCCTCA)	2.07
ATCGGCCCTTGGGTTCTAACCTGTTGCTG (site GTGGGCCCTCA)	0.0497
ATCTAAACTTGGGTTCTAACCTGTTGCCT (site ATCTAAACTAG)	0.842
ATCTAAACTTGGGTTCTAACCTGTTGCCT (site CGAGTCCCTCT)	0.105
ATCTACTCTTGGGTTCTAACCTGTTGCCT (site ATATACTCTCG)	0.382
ATCTACTCTTGGGTTCTAACCTGTTGCCT (site ATCTACTCTAG)	1.56
ATCTATACTTGGGTTCTAACCTGTTGCCT (site ATCTATACTAG)	0.821
ATCTATACTTGGGTTCTAACCTGTTGCCT (site GGACGAGCTCA)	0.0107
ATCTATCCTTGGGTTCTAACCTGTTGCAT (site ACCTAACCTAT)	0.179
ATCTATCCTTGGGTTCTAACCTGTTGCAT (site ATCTATCCTAT)	0.198
